{
  "source": "ChEMBL document CHEMBL4334493",
  "about": "“14- and 15-membered lactone macrolides and their analogues and hybrids: structure, molecular mechanism of action and biological activity” (Eur J Med Chem, 2019)",
  "key": {"[1]": {"tested_on": "Haemophilus influenzae", "test": "Antibacterial activity against Haemophilus influenzae 49247", "type": "functional"}, "[2]": {"tested_on": "Haemophilus influenzae", "test": "Antibacterial activity against Haemophilus influenzae 33929", "type": "functional"}, "[3]": {"test": "Antibacterial activity against Salmonella choleraesuis 14028 by NCCLS protocol based broth microdilution method", "type": "functional, Salmonella enterica subsp. enterica serovar Choleraesuis", "details": "Salmonella enterica"}, "[4]": {"tested_on": "Pseudomonas aeruginosa", "test": "Antibacterial activity against Pseudomonas aeruginosa 27853 by NCCLS protocol based broth microdilution method", "type": "functional"}, "[5]": {"tested_on": "Streptococcus pneumoniae", "test": "Antibacterial activity against Streptococcus pneumoniae 49619 by NCCLS protocol based broth microdilution method", "type": "functional"}, "[6]": {"tested_on": "Enterococcus faecalis", "test": "Antibacterial activity against Enterococcus faecalis ATCC 29212 by NCCLS protocol based broth microdilution method", "type": "functional"}, "[7]": {"tested_on": "Escherichia coli", "test": "Antibacterial activity against Escherichia coli ATCC 25922 by NCCLS protocol based broth microdilution method", "type": "functional"}, "[8]": {"tested_on": "Klebsiella pneumoniae", "test": "Antibacterial activity against Klebsiella pneumoniae 13883 by NCCLS protocol based broth microdilution method", "type": "functional"}, "[9]": {"tested_on": "Staphylococcus epidermidis", "test": "Antibacterial activity against Staphylococcus epidermidis ATCC 12228 by NCCLS protocol based broth microdilution method", "type": "functional"}, "[10]": {"tested_on": "Staphylococcus aureus", "test": "Antibacterial activity against Staphylococcus aureus ATCC 25923 by NCCLS protocol based broth microdilution method", "type": "functional"}, "[11]": {"tested_on": "Streptococcus pneumoniae", "test": "Antibacterial activity against Streptococcus pneumoniae 655 mefA", "type": "functional"}, "[12]": {"tested_on": "Escherichia coli", "test": "Antibacterial activity against Escherichia coli DK A2058G", "type": "functional"}, "[13]": {"tested_on": "Escherichia coli", "test": "Antibacterial activity against Escherichia coli DK pKK 3535", "type": "functional"}, "[14]": {"tested_on": "Streptococcus pneumoniae", "test": "Antibacterial activity against Streptococcus pneumoniae ATCC 49619", "type": "functional"}, "[15]": {"tested_on": "Staphylococcus aureus", "test": "Antibacterial activity against methicillin resistant Staphylococcus aureus 7662", "type": "functional"}, "[16]": {"tested_on": "Staphylococcus aureus", "test": "Antibacterial activity against methicillin resistant Staphylococcus aureus 33591", "type": "functional"}},
  "data": [
    {"molecule": "CC[C@H]1OC(=O)[C@H](C)C(=O)[C@H](C)[C@@H](O[C@@H]2O[C@H](C)C[C@H](N(C)C)[C@H]2O)[C@@]2(C)C[C@@H](C)/C(=N\\C(C)=O)[C@H](C)[C@@H](OC/C(=N\\OCc3ccc(-c4ccno4)cn3)CO2)[C@]1(C)O", "values": [
      {"measurement": "MIC", "setting": "[1]", "result": 4, "unit": "µg/mL"},
      {"measurement": "MIC", "setting": "[2]", "result": 4, "unit": "µg/mL"}
    ]},
    {"molecule": "CC[C@H]1OC(=O)[C@H](C)[C@@H](O[C@H]2C[C@@](C)(OC)[C@@H](OC(=O)NC[C@H]3OB(O)c4ccccc43)[C@H](C)O2)[C@H](C)[C@@H](O[C@@H]2O[C@H](C)C[C@H](N(C)C)[C@H]2O)[C@](C)(OC)C[C@@H](C)C(=O)[C@H](C)[C@@H](O)[C@]1(C)O", "values": [
      {"measurement": "MIC", "setting": "[3]", "result": "> 64", "unit": "µg/mL"},
      {"measurement": "MIC", "setting": "[4]", "result": "> 64", "unit": "µg/mL"},
      {"measurement": "MIC", "setting": "[5]", "result": 0.5, "unit": "µg/mL"},
      {"measurement": "MIC", "setting": "[6]", "result": 4, "unit": "µg/mL"},
      {"measurement": "MIC", "setting": "[7]", "result": "> 64", "unit": "µg/mL"},
      {"measurement": "MIC", "setting": "[8]", "result": "> 64", "unit": "µg/mL"},
      {"measurement": "MIC", "setting": "[9]", "result": 0.5, "unit": "µg/mL"},
      {"measurement": "MIC", "setting": "[10]", "result": 2, "unit": "µg/mL"}
    ]},
    {"molecule": "CC[C@H]1OC(=O)[C@H](C)C(=O)[C@H](C)[C@@H](O[C@@H]2O[C@H](C)C[C@H](N(C)C)[C@H]2O)[C@@]2(C)C[C@@H](C)C(=O)[C@H](C)[C@@H](OC/C(=N\\OCc3ccc(-c4nc(N)cs4)cn3)CO2)[C@]1(C)O", "values": [
      {"measurement": "MIC", "setting": "[1]", "result": 1, "unit": "µg/mL"},
      {"measurement": "MIC", "setting": "[2]", "result": 2, "unit": "µg/mL"}
    ]},
    {"molecule": "CC[C@H]1OC(=O)[C@@](C)(F)C(=O)[C@H](C)[C@@H](O[C@@H]2O[C@H](C)C[C@H](N(C)C)[C@H]2O)[C@](C)(OC)C[C@@H](C)C(=O)[C@H](C)[C@H]2N(CCCCn3cc(-c4cccs4)nn3)C(=O)O[C@]12C", "values": [
      {"measurement": "MIC", "setting": "[11]", "result": 0.5, "unit": "µg/mL"},
      {"measurement": "MIC", "setting": "[12]", "result": 0.004, "unit": "µg/mL"},
      {"measurement": "MIC", "setting": "[13]", "result": 1, "unit": "µg/mL"},
      {"measurement": "MIC", "setting": "[14]", "result": 1, "unit": "µg/mL"}
    ]},
    {"molecule": "CC[C@H]1OC(=O)[C@@](C)(F)C(=O)[C@H](C)[C@@H](O[C@@H]2O[C@H](C)C[C@H](N(C)C)[C@H]2O)[C@](C)(OC)C[C@@H](C)C(=O)[C@H](C)[C@H]2N(CCCCn3nncc3-c3cccs3)C(=O)O[C@]12C", "values": [
      {"measurement": "MIC", "setting": "[11]", "result": 0.5, "unit": "µg/mL"},
      {"measurement": "MIC", "setting": "[12]", "result": 0.004, "unit": "µg/mL"},
      {"measurement": "MIC", "setting": "[13]", "result": 1, "unit": "µg/mL"},
      {"measurement": "MIC", "setting": "[14]", "result": 1, "unit": "µg/mL"}
    ]},
    {"molecule": "CCC(=O)/N=C1\\[C@H](C)C[C@@]2(C)OC/C(=N/OCc3csc(-c4cccc(N)n4)n3)CO[C@H]([C@H]1C)[C@](C)(O)[C@@H](CC)OC(=O)[C@@](C)(F)C(=O)[C@H](C)[C@H]2O[C@@H]1O[C@H](C)C[C@H](N(C)C)[C@H]1O", "values": [
      {"measurement": "MIC", "setting": "[1]", "result": 1, "unit": "µg/mL"},
      {"measurement": "MIC", "setting": "[2]", "result": 4, "unit": "µg/mL"},
      {"measurement": "MIC", "setting": "[15]", "result": 1, "unit": "µg/mL"},
      {"measurement": "MIC", "setting": "[16]", "result": 2, "unit": "µg/mL"}
    ]}
  ]
}
